Assay results: patent US12187683B2, “Benzoindazolone compound and intermediate thereof” (LMITO THERAPEUTICS INC., priority 2019, dated 2025)

molecular target: NQO1 (Homo sapiens, UniProt P15559); experiment: In vitro NQO1 enzyme activity assay (cytochrome C reduction, absorbance at 550 nm); format: biochemical; conditions: Table 1; NQO1 2 ng, Compound 5 μM; control 196
Method: In order to evaluate the activity of synthesized compound in NQO1, the experiments were conducted as follows:
The synthesized compound was dissolved in DMSO to make a 10 mM stock solution, which was further diluted with DMSO to 250 μM so as to prepare a working solution. For experimental groups, the working solution of the compound was added to an enzyme reaction solution in which 50 μL of 1.54 mM Cytochrome C solution was added to 900 μL of 50 mM Tris-HCl (pH7.5) containing 0.14% BSA. For negative control groups, DMSO not containing the compound of the invention was added to the enzyme reaction solution as above. For each experimental and control group, 20 μL of 100 ng/mL NQO1 protein was added. Next, 10 μL of 20 mM NADH was added to bring up the volume to 1 mL. The change of absorbance was measured at 550 nm for 10 minutes using 1 mL cuvette. The kinetics of reaction was measured with the increase of absorbance as the cytochrome C was reduced at 550 nm over 10 minutes. The activity of NQO1 was measured by the amount of cytochrome C that is being reduced (nmol cytochrome C that was reduced/min/ug NQO1 protein).
Absorption coefficient of Cytochrome C: 21.1 (μmol/mL)^−1 cm^−1
Equipment=Cary 100 UV-Vis Spectrophotometer

Sequence of NQO1 (P15559 whole entry, species assumed): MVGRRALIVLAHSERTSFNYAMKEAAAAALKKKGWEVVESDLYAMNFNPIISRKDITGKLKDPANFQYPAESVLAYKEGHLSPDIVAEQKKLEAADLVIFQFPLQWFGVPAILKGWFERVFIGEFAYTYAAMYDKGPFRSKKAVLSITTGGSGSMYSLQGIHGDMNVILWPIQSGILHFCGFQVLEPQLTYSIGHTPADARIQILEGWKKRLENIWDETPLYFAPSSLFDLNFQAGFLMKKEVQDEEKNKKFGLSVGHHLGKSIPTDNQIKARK

| SMILES | NQO1 activity (nmol of reduced Cytochrome C/min/μg NQO1 protein) |
| --- | --- |
| CC(C)n1c(=O)c2c(n1C)-c1ccccc1C(=O)C2=O [Compound 3, 2-isopropyl-1-methyl-1H-benzo[g]indazol-3,4,5(2H)-trione] | 3066 nmol of reduced Cytochrome C/min/μg NQO1 protein |
| O=C1C(=O)c2c(n(-c3ccccc3)[nH]c2=O)-c2ccccc21 [Compound 1, 1-phenyl-1H-benzo[g]indazol-3,4,5(2H)-trione] | 180 nmol of reduced Cytochrome C/min/μg NQO1 protein |
| COc1nn(-c2ccccc2)c2c1C(=O)C(=O)c1ccccc1-2 [Compound 6, 3-methoxy-1-phenyl-1H-benzo[g]indazol-4,5-dione] | 7706 nmol of reduced Cytochrome C/min/μg NQO1 protein |
| Cn1c(=O)c2c(n1-c1ccccc1)-c1ccccc1C(=O)C2=O [Compound 5, 2-methyl-1-phenyl-1H-benzo[g]indazol-3,4,5(2H)-trione] | 2602 nmol of reduced Cytochrome C/min/μg NQO1 protein |

same assay, conditions: Table 2; NQO1 2 ng, Compound 0.2 μM; control 96

| SMILES | NQO1 activity (nmol of reduced Cytochrome C/min/μg NQO1 protein) |
| --- | --- |
| CC(C)COc1nn(-c2ccccc2)c2c1C(=O)C(=O)c1ccccc1-2 [Compound 10, 3-isobutoxy-1-phenyl-1H-benzo[g]indazol-4,5-dione] | 3455 nmol of reduced Cytochrome C/min/μg NQO1 protein |
| COc1nn(-c2ccc(F)cc2)c2c1C(=O)C(=O)c1ccccc1-2 [Compound 19, 1-(4-fluorophenyl)-3-methoxy-1H-benzo[g]indazol-4,5-dione] | 4303 nmol of reduced Cytochrome C/min/μg NQO1 protein |
| CC(C)CCOc1nn(-c2ccccc2)c2c1C(=O)C(=O)c1ccccc1-2 [Compound 12, 3-(isopentyloxy)-1-phenyl-1H-benzo[g]indazol-4,5-dione] | 2981 nmol of reduced Cytochrome C/min/μg NQO1 protein |
| COc1nn(-c2ccccc2)c2c1C(=O)C(=O)c1ccccc1-2 [Compound 6, 3-methoxy-1-phenyl-1H-benzo[g]indazol-4,5-dione] | 3782 nmol of reduced Cytochrome C/min/μg NQO1 protein |
| CC(C)Cn1c(=O)c2c(n1-c1ccccc1)-c1ccccc1C(=O)C2=O [Compound 9, 2-isobutyl-1-phenyl-1H-benzo[g]indazol-3,4,5(2H)-trione] | 2474 nmol of reduced Cytochrome C/min/μg NQO1 protein |
| COc1nn(-c2ccc(C(F)(F)F)cc2)c2c1C(=O)C(=O)c1ccccc1-2 [Compound 18, 3-methoxy-1-(4-(trifluoromethyl)phenyl)-1H-benzo[g]indazol-4,5-dione] | 4232 nmol of reduced Cytochrome C/min/μg NQO1 protein |
| CCn1c(=O)c2c(n1-c1ccccc1)-c1ccccc1C(=O)C2=O [Compound 7, 2-ethyl-1-phenyl-1H-benzo[g]indazol-3,4,5(2H)-trione] | 2246 nmol of reduced Cytochrome C/min/μg NQO1 protein |
| CCOc1nn(-c2ccccc2)c2c1C(=O)C(=O)c1ccccc1-2 [Compound 8, 3-ethoxy-1-phenyl-1H-benzo[g]indazol-4,5-dione] | 3768 nmol of reduced Cytochrome C/min/μg NQO1 protein |
| CC(C)n1c2c(c(=O)n1C)C(=O)C(=O)c1ccccc1-2 [Compound 16, 1-isopropyl-2-methyl-1H-benzo[g]indazol-3,4,5(2H)-trione] | 4441 nmol of reduced Cytochrome C/min/μg NQO1 protein |
| CC(C)n1c(=O)c2c(n1-c1ccccc1)-c1ccccc1C(=O)C2=O [Compound 13, 2-isopropyl-1-phenyl-1H-benzo[g]indazol-3,4,5(2H)-trione] | 2137 nmol of reduced Cytochrome C/min/μg NQO1 protein |
| CC(C)Oc1nn(-c2ccccc2)c2c1C(=O)C(=O)c1ccccc1-2 [Compound 2, 3-isopropoxy-1-phenyl-1H-benzo[g]indazol-4,5-dione] | 3531 nmol of reduced Cytochrome C/min/μg NQO1 protein |
| CC(C)CCn1c(=O)c2c(n1-c1ccccc1)-c1ccccc1C(=O)C2=O [Compound 11, 2-isopentyl-1-phenyl-1H-benzo[g]indazol-3,4,5(2H)-trione] | 2839 nmol of reduced Cytochrome C/min/μg NQO1 protein |

same assay, conditions: Table 3; NQO1 2 ng, Compound 0.2 μM; control 74

| SMILES | NQO1 activity (nmol of reduced Cytochrome C/min/μg NQO1 protein) |
| --- | --- |
| Cn1c2c(c(=O)n1-c1ccccc1)C(=O)C(=O)c1ccccc1-2 [Compound 20, 1-methyl-2-phenyl-1H-benzo[g]indazol-3,4,5(2H)-trione] | 436 nmol of reduced Cytochrome C/min/μg NQO1 protein |
| Cn1c(=O)c2c(n1-c1ccccc1)-c1ccc(F)cc1C(=O)C2=O [Compound 21, 7-fluoro-2-methyl-1-phenyl-1H-benzo[g]indazol-3,4,5(2H)-trione] | 1095 nmol of reduced Cytochrome C/min/μg NQO1 protein |
| COc1nn(-c2ccccc2)c2c1C(=O)C(=O)c1ccccc1-2 [Compound 6, 3-methoxy-1-phenyl-1H-benzo[g]indazol-4,5-dione] | 2905 nmol of reduced Cytochrome C/min/μg NQO1 protein |
| COc1nn(C(C)C)c2c1C(=O)C(=O)c1ccccc1-2 [Compound 17, 1-isopropyl-3-methoxy-1H-benzo[g]indazol-4,5-dione] | 4488 nmol of reduced Cytochrome C/min/μg NQO1 protein |
| COc1nn(-c2ccccc2)c2c1C(=O)C(=O)c1cc(F)ccc1-2 [Compound 22, 7-fluoro-3-methoxy-1-phenyl-1H-benzo[g]indazol-4,5-dione] | 5360 nmol of reduced Cytochrome C/min/μg NQO1 protein |

same assay, conditions: Table 4; NQO1 2 ng, Compound 0.2 μM; control 10

| SMILES | NQO1 activity (nmol of reduced Cytochrome C/min/μg NQO1 protein) |
| --- | --- |
| COc1nn(-c2ccccc2)c2c1C(=O)C(=O)c1cc(N)ccc1-2 [Compound 24, 7-amino-3-methoxy-1-phenyl-1H-benzo[g]indazol-4,5-dione] | 3739 nmol of reduced Cytochrome C/min/μg NQO1 protein |
| COc1nn(-c2ccccc2)c2c1C(=O)C(=O)c1ccccc1-2 [Compound 6, 3-methoxy-1-phenyl-1H-benzo[g]indazol-4,5-dione] | 3261 nmol of reduced Cytochrome C/min/μg NQO1 protein |
| COc1nn(-c2ccccc2)c2c1C(=O)C(=O)c1cc([N+](=O)[O-])ccc1-2 [Compound 23, 3-methoxy-7-nitro-1-phenyl-1H-benzo[g]indazol-4,5-dione] | 393 nmol of reduced Cytochrome C/min/μg NQO1 protein |
| COc1nn(-c2ccccc2)c2c1C(=O)C(=O)c1cc(Br)ccc1-2 [Compound 25, 7-bromo-3-methoxy-1-phenyl-1H-benzo[g]indazol-4,5-dione] | 1445 nmol of reduced Cytochrome C/min/μg NQO1 protein |
